# “Also recorded” adds a separate entry of the source.
# What was measured:
# Format in all cases: cell-based, mouse
# [1] = test system: Lamp1; assay: Immunoblot of Lamp1 (lysosomal activity) in MG6 cells; conditions: 1000 nM, under β-amyloid stimulation
# Method: FIGS. 6A and 6B. Responses of lysosomal function in microglia to β-amyloid stimulation. FIG. 6A: Immunoblots of MG6 cells after treatment with Pyk2 inhibitor and β-amyloid oligomers. Cells were pretreated with 100 ng/mL CSF-1 and 1000 nM Pyk2 inhibitor (PF431396) for 24 hours as indicated, then cell lysates were harvested after treatment with 500 ng/mL β-amyloid for 24 hours (lanes 4-6). MG6 cell lysates were subjected to immunoblotting of phosphorylated Pyk2 (p-Pyk2), Lamp1, Erk, and phosphorylated Erk (p-Erk). Tubulin was used as a loading control. FIG. 6B: Quantification of immunoblotting depicted in FIG. 6A. Ratios of p-Pyk2/Pyk2, Lamp1/Tubulin, and p-Erk/Erk were calculated for MG6 cells pretreated with CSF-1 and a Pyk2 inhibitor, as indicated.
# To assess lysosomal activity, Pyk2 inhibitor treated MG6 cells were also exposed to a disease-relevant substrate, β-amyloid protein, which is associated with progressive loss of neuronal function during Alzheimer's disease. After 24 hours of treatment with β-amyloid, control and Pyk2 inhibitor treated MG6 cells were collected, lysed, and immunoblotted in order to determine the relative protein levels of Pyk2, phosphorylated Pyk2, Lamp1, Erk, phosphorylated Erk, and tubulin (FIGS. 6A and 6B). […] However, in the presence of β-amyloid protein, an increase in Lamp1 was observed following treatment with Pyk2 inhibitor.
# [2] = test system: Raw264.7; assay: RANKL-induced osteoclast differentiation of Raw264.7 cells (TRAP activity and staining); conditions: for TRAP activity: listed as Pyk2 inhibitor
# Method: FIGS. 8A-8F. Effect of Pyk2 inhibition on RANKL induced osteoclast differentiation. FIG. 8A: Schematic depicting the experimental design for testing the effect of Pyk2 inhibition on RANKL-induced osteoclast differentiation. On day 1, Raw264.7 macrophages are pretreated with Pyk2 inhibitor and then treated on day 2 with fresh culture medium comprising 100 ng/mL RANKL to stimulate differentiation to osteoclasts. The quantity of mature, differentiated osteoclasts is measured by tartrate-resistant acid […] (TRAP) activity on day 6. FIG. 8B: TRAP activity of mature, differentiated osteoclasts treated as described in FIG. 8A. […] FIG. 8C: Phase-contrast microscope images of TRAP-stained osteoclasts, treated as described in FIG. 8A, at ×20 magnification. FIG. 8D: Schematic depicting the experimental design for testing the effect of Pyk2 inhibition on RANKL-induced osteoclast differentiation. On day 2, Raw264.7 macrophages are treated with fresh culture medium comprising 100 ng/mL RANKL to stimulate differentiation to osteoclasts, then are subsequently treated on day 3 with Pyk2 inhibitor. FIG. 8E: TRAP activity of mature, differentiated osteoclasts treated as described in FIG. 8D. […] FIG. 8F: Phase-contrast microscope images of TRAP-stained osteoclasts, treated as described in FIG. 8D, at ×20 magnification.
# To explore this question, an Abelson leukemia virus transformed monocyte/macrophage-like cell line derived from BALB/c mice, Raw264.7, was used. To induce differentiation to osteoclasts, Raw264.7 cells were treated with receptor activator of nuclear factor kappa-B ligand (RANKL), also known as osteoclast differentiation factor (ODF). Raw264.7 cells and differentiated osteoclasts were treated with Pyk2 inhibitor, as in Example 2.
# Raw264.7 cells were cultured and treated with Pyk2 inhibitors after 24 hours, then differentiated into osteoclasts after 24 hours of Pyk2 inhibitor treatment (FIG. 8A). Four days after differentiation into osteoclasts, the cells were then assessed for tartrate-resistant acid phosphatase (TRAP) activity and presence, as TRAP is a biomarker expressed by mature, differentiated osteoclasts, but not undifferentiated progenitor cells.
# Therefore, the effect of Pyk2 inhibition was also assessed by culturing RAW264.7 cells, differentiating into osteoclasts after 2 days, the treating with Pyk2 inhibitor for 24 hours, 1 day after differentiating (FIG. 8D). […] Therefore, Pyk2 inhibition could ultimately result in an increase in bone mass.
# [3] = test system: MG6 cells; assay: Multinucleation of MG6 microglia (DAPI, Iba1 staining)
# Method: FIGS. 4A-4E. Induction of multinucleated cells by a Pyk2 inhibitor. FIG. 4A: Microscopic images depicting the effect of a Pyk2 inhibitor on the morphology of MG6 cells. MG6 cell line is established with neonatal C57BL/6 mouse microglia that are collected from whole brain and transformed with c-myc oncogene. MG6 cells were stimulated with 100 ng/mL CSF-1 for 48 hours and then cultured for 24 hours with various concentrations of Pyk2 inhibitor: 0 nM, 100 nM, 500 nM and 1000 nM. FIG. 4B: Quantification of the effect of a Pyk2 inhibitor on the proliferation of MG6 cells. MG6 cells were stimulated with CSF-1 and cultured with various concentrations of Pyk2 inhibitor as in FIG. 4A. The baseline proliferation rate is defined as 100 ng/mL CSF-1 treatment for 48 hours. Proliferation of MG6 cells with various concertation of Pyk2 inhibitor treatment is measured using a Cell Counter Kit for 4 hours of incubation. No difference in MG6 cell proliferation is observed at the Pyk2 inhibitor concentration of 100 nM. […] FIG. 4C: Microscopic images depicting multinucleated MG6 cells with 24 hours of 1000 nM Pyk2 inhibitor treatment following 48 hours of 100 ng/mL CSF-1 treatment. […] Multinucleated cells with two or more nuclei are observed as marked with circles in the bottom image. FIG. 4D: Quantification of the proportion of multinucleated cells after 0 nM, 500 nM, and 1000 nM Pyk2 inhibitor treatment. MG6 cells were treated with Pyk2 inhibitor for 24 hours after 48 hours of 100 ng/mL CSF-1 treatment. […] FIG. 4E: Immunohistochemical staining depicting multinucleation of Pyk2 inhibitor treated microglia. MG6 cells were stained with anti-Tubulin and anti-Iba1, while nuclei were stained with DAPI. Cells were observed via confocal microscopy (×600). MG6 cells were treated without Pyk2 inhibitor (left) or with 1000 nM Pyk2 inhibitor (right) after 48 hours of 100 ng/mL CSF-1 treatment. Scale bar is 20 μm. […]
# To further assess the function of Pyk2 during neurodegenerative disorders, such as AD, the effect of Pyk2 inhibition was assessed in a microglial cell line. […]
smiles,measurement,setting,value
CN(c1ccccc1CNc1nc(Nc2ccc3c(c2)CC(=O)N3)ncc1C(F)(F)F)S(C)(=O)=O [PF-431396],Lamp1 (lysosomal activity),[1],increased
same,Lamp1 (lysosomal activity),[1]; listed as Pyk2 inhibitor,increase
same,TRAP activity,"[2]; 1000 nM for 24 hours, 1 day after RANKL",statistically significant reduction; also recorded: significantly reduced
same,TRAP staining,"[2]; inhibitor for 24 hours, 1 day after RANKL",apparent reduction
same,TRAP activity,[2]; inhibitor pretreatment (up to 1000 nM) before RANKL,not statistically significant; also recorded: no significant differences
same,TRAP staining,[2]; inhibitor pretreatment before RANKL,did not reveal any obvious difference
same,multinucleation of MG6 cells,"[3]; 500 nM, 24 h after 48 h CSF-1",insufficient to induce multinucleation
same,level of Iba1 in cytoplasm of multinucleated MG6 cells,[3]; 1000 nM,increased level
same,multinucleation of MG6 cells / proportion of multinucleated cells,"[3]; 1000 nM, 24 h after 48 h CSF-1, listed as Pyk2 inhibitor",multinucleation of MG6 cells was observed; also recorded: significantly increased
